Values joined by “and” are separate entries in the source; they are usually repeats but may differ in a detail not shown here. Equal entries are not always repeated. “Also recorded” adds a separate entry of the source. Where two headings read alike, the source gives them in different places.
Assays:
[1] = target: T1, xanthine oxidase (XO) (Homo sapiens, UniProt P47989); test: Semi-mechanistic exposure-response uric acid model: XOI inhibition of uric acid production rate (clinical sUA/uUA data); type: in vivo
T1 construct: from tissue

[2] = target: T1, xanthine oxidase (XO); design: method as in Aksenov et al. 2018 [23]; settings: fixed, not estimated; ref Aksenov et al. 2018 [23]; cited from earlier work
[3] = Population pharmacokinetic model, oxypurinol; type: in vivo, human
From the text: CL = CLTYP * (1 + log(1+k*DOSE_[…]))
Where CLTYP is typical value of clearance and k is a coefficient for verinurad dose (1/mg).

[4] = target: T2, URAT1 (Homo sapiens, UniProt Q96S37); test: Semi-mechanistic exposure-response uric acid model: verinurad inhibition of uric acid reabsorption (clinical sUA/uUA data); type: in vivo
T2 construct: from tissue; host or cells: kidney (proximal tubule) of human study subjects, in vivo
T2 sequence (Q96S37 1-553): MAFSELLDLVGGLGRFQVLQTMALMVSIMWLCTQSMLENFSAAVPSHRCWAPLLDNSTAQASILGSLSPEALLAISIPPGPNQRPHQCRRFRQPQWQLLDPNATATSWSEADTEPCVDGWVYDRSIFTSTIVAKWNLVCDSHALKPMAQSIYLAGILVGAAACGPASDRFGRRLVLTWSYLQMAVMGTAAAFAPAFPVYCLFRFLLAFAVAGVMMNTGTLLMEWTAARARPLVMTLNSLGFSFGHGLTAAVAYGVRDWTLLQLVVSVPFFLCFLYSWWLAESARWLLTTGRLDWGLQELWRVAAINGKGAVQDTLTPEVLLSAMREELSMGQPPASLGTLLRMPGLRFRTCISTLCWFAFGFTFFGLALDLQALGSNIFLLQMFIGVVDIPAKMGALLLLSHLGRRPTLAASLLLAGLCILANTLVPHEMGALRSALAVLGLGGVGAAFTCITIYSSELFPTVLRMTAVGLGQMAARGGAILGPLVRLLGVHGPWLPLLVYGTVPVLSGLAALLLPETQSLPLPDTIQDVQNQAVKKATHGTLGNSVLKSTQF

[5] = target: T2, URAT1; design: method as in PMID 21148271, PMID 18492088; settings: fixed, not estimated; consistent with FEUA in URAT1 loss of function mutations; cited from earlier work

T1 sequence (P47989 whole entry): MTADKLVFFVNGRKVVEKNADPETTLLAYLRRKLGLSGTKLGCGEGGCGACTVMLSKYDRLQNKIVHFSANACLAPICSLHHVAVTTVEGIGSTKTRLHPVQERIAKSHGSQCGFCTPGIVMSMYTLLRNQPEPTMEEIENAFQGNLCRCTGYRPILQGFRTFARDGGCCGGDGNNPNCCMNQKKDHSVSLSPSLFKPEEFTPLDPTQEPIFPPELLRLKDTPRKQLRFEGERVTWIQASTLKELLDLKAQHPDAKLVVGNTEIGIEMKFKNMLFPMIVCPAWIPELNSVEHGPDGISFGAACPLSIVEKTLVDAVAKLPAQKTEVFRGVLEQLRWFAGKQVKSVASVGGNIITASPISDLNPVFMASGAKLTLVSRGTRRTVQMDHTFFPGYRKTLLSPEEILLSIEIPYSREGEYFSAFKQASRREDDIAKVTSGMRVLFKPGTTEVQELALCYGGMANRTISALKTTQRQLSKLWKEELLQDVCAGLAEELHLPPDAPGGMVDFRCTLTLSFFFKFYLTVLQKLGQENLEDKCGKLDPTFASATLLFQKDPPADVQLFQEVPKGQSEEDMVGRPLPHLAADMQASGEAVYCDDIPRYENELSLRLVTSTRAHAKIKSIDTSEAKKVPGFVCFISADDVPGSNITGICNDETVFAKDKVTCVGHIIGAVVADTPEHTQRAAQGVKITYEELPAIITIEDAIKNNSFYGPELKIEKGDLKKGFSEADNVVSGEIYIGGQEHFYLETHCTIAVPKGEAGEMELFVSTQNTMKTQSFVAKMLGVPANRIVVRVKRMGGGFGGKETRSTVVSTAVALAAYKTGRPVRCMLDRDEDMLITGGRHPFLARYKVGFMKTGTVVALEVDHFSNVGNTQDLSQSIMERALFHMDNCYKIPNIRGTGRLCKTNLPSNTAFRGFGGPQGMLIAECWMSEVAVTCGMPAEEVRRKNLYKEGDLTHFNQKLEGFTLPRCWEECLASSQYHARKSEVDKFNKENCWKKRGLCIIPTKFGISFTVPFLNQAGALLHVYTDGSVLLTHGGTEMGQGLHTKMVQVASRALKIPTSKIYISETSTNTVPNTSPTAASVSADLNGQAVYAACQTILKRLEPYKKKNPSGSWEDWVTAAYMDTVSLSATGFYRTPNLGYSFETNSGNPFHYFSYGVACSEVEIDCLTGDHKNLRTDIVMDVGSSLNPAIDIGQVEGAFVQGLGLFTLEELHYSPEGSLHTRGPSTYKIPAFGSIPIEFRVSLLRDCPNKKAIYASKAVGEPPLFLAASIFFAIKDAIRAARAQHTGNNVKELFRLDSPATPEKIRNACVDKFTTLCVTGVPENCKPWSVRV

| EC50 [1] [µM] | EC50 ([1]; plasma concentration giving half-maximal inhibition of production rate, typical value, read-out: EC50 (reducing uric acid production) (converted)) [µM] | Decrease of oxypurinol exposure when administered together with verinurad ([3]; 12 mg verinurad, according to the model) | Vd ([3]; human, in vivo, oral, read-out: Central volume of distribution) [L] | Absorption rate constant ([3]; oxypurinol after allopurinol dosing, popPK estimate) [h⁻¹] | EC50 ([4]; plasma concentration giving half-maximal inhibition of reabsorption, typical value, healthy volunteers, read-out: Verinurad EC50 (reducing uric acid reuptake) (converted)) | EC50 ([4]; plasma concentration, symptomatic hyperuricemic (gout) patients, read-out: Verinurad EC50, symptomatic hyperuricemic (gout) subjects (converted)) | Verinurad EC50 difference, asymptomatic hyperuricemic patients versus healthy volunteers ([4]; studies D5495C00001 and D5495C00007) | Compound | Febuxostat EC50 difference, healthy volunteers versus hyperuricemic patients ([1]; human, in vivo) | Emax (maximum inhibition of uric acid production) [2] | Emax (maximum increase in fractional excretion of uric acid) [5] |
| --- | --- | --- | --- | --- | --- | --- | --- | --- | --- | --- | --- |
| 0.405 | – | – | – | – | – | – | – | Cc1nc(-c2ccc(OCC(C)C)c(C#N)c2)sc1C(=O)O [febuxostat] | no differences; also recorded: not found to be significantly different | 1 | – |
| – | 85.7 | approximately 30% | 45.7 | 0.3343 | – | – | – | O=c1[nH]c(=O)c2c[nH]nc2[nH]1 [oxypurinol] | – | 0.84 | – |
| – | – | – | – | – | 83.2 nM and 84.4 nM | 106 nM and 107 nM | no significant difference | CC(C)(Sc1ccncc1-c1ccc(C#N)c2ccccc12)C(=O)O [verinurad] | – | – | 0.7 |

From paper PMC8225519, “A semi-mechanistic exposure–response model to assess the effects of verinurad, a potent URAT1 inhibitor, on serum and urine uric acid in patients with hyperuricemia-associated diseases” (Journal of Pharmacokinetics and Pharmacodynamics, 2021)
